The IC50 is the concentration needed to halve the response being measured. Read a high IC50 as lower potency.

Molecules are shown by their SMILES. Where only a bound is given, the exact number is not on record here.

The subject of one test is MV4-11 cells. The test is described as follows: Growth inhibition of MV4-11 cells (CellTiterGlo). It counts as cell-based. Particulars: Homo sapiens, 72 hours, uncertainty +20%. On the procedure:
FLT3 specific growth inhibition was measured in the leukemic cell line MV4-11 (ATCC Number: CRL-9591). […] MV4-11 cells cannot grow and survive without active FLT31TD.
To measure proliferation inhibition by test compounds the luciferase based CellTiterGlo reagent (Promega) was used. Cells are plated at 10,000 cells per well in 100ul of in RPMI media containing penn/strep, 10% FBS and lng/ml GM-CSF or 1 ng/ml IL-3 for MV4-11 and Baf3 cells respectively.
Compound dilutions or 0.1% DMSO (vehicle control) are added to cells and the cells are allowed to grow for 72 hours at standard cell growth conditions (37° C., 5% CO2). Total cell growth is quantified as the difference in luminescent counts (relative light units, RLU) of cell number at Day 0 compared to total cell number at Day 3 (72 hours of growth and/or compound treatment). One hundred percent inhibition of growth is defined as an RLU equivalent to the Day 0 reading. Zero percent inhibition is defined as the RLU signal for the DMSO vehicle control at Day 3 of growth. All data points are an average of triplicate samples. […] Inhibition and IC50 data analysis was done with GraphPad Prism using a non-linear regression fit with a multiparamater, sigmoidal dose-response (variable slope) equation.
MV-411 cells expressed the FLT3 internal tandem duplication mutation, and thus were entirely dependent upon FLT3 activity for growth. […] In contrast, the Baf3 cell proliferations is driven by the cytokine IL-3 and these cells are used as a non-specific toxicity control for test compounds.
For orientation: In ATP-based viability assays light output follows the ATP content of the culture.

Another test concerns the target T1, FLT3 571-993 (Homo sapiens, UniProt P36888).
T1 construct: 10 nM FLT3 571-993, 20 ug/mL poly Glu4Tyr
T1 sequence (P36888 571-993): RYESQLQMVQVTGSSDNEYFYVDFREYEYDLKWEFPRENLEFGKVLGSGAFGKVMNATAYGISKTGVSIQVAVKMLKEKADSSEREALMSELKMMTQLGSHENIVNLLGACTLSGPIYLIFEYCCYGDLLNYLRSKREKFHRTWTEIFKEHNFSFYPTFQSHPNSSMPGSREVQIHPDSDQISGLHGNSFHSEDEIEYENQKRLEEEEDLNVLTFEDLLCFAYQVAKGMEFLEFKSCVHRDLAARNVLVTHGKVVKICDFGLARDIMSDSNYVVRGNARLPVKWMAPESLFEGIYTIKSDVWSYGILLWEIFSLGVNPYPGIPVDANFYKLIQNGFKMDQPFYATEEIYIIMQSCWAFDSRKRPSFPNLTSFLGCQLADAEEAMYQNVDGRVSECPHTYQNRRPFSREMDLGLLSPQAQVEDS
The test is described as follows: FLT3 Fluorescence Polarization Kinase Assay. It counts as biochemical. Particulars: 10 nM FLT3 571-993, 150 uM ATP, 30 minutes; uncertainty +10%. On the procedure:
The FLT3 FP assay utilizes the fluorescein-labeled phosphopeptide and the anti-phosphotyrosine antibody included in the Panvera Phospho-Tyrosine Kinase Kit (Green) supplied by Invitrogen. When FLT3 phosphorylates poly Glu4Tyr, the fluorescein-labeled phosphopeptide is displaced from the anti-phosphotyrosine antibody by the phosphorylated poly Glu4Tyr, thus decreasing the FP value. The FLT3 kinase reaction is incubated at room temperature for 30 minutes under the following conditions: 10 nM FLT3 571-993, 20 ug/mL poly Glu4Tyr, 150 uM ATP, 5mM MgCl2, 1% compound in DMSO. The kinase reaction is stopped with the addition of EDTA. The fluorescein-labeled phosphopeptide and the anti-phosphotyrosine antibody are added and incubated for 30 minutes at room temperature.
All data points are an average of triplicate samples. Inhibition and IC50 data analysis was done with GraphPad Prism using a non-linear regression fit with a multiparamater, sigmoidal dose-response (variable slope) equation.
(Polarisation of emitted light reports the rotation of a fluorescent probe.)

For the compound `CC(C)c1ccc(NC(=O)OC2CCN(c3ncnc4sccc34)CC2)cc1` [Compound 1, (4-Isopropyl-phenyl)-carbamic acid 1-thieno[2,3-d]pyrimidin-4-yl-piperidin-4-yl ester], the IC50 is 7.2 µM in the test on MV4-11 cells and 102 nM at FLT3 571-993.

Consider `CC(C)Oc1ccc(NC(=O)OC2CCN(c3ncnc4sccc34)CC2)cc1` [Compound 2, (4-Isopropoxy-phenyl)-carbamic acid 1-thieno[2,3-d]pyrimidin-4-yl-piperidin-4-yl ester], for which the IC50 was > 10 µM with MV4-11 cells and 2090 nM on FLT3 571-993.

Regarding `CC(C)c1ccc(NC(=O)OC2CCN(c3ncnc4sccc34)C2)cc1` (stereo not drawn) [Compound 3, (4-Isopropyl-phenyl)-carbamic acid 1-thieno[2,3-d]pyrimidin-4-yl-pyrrolidin-3-yl ester], the IC50 in the test on MV4-11 cells turned out to be 2.4 µM; against FLT3 571-993, 227 nM.

On to `CC(C)Oc1ccc(NC(=O)OC2CCN(c3ncnc4sccc34)C2)cc1` (stereo not drawn) [Compound 4, (4-Isopropoxy-phenyl)-carbamic acid 1-thieno[2,3-d]pyrimidin-4-yl-pyrrolidin-3-yl ester], for which the figures for the concentration for half-maximal inhibition (IC50) in the test with MV4-11 cells and against FLT3 571-993 were > 10 µM and 761 nM, respectively.

For the compound `CC(C)Oc1ccc(NC(=O)OC2CCN(c3ncnc4ccsc34)C2)cc1` (stereo not drawn) [Compound 6, (4-Isopropoxy-phenyl)-carbamic acid 1-thieno[3,2-d]pyrimidin-4-yl-pyrrolidin-3-yl ester], the IC50 with MV4-11 cells was found to be 6.5 µM; on FLT3 571-993, 208 nM.

As for `CC(C)c1ccc(NC(=O)OC2CCN(c3ncnc4ccsc34)CC2)cc1` [Compound 7, (4-Isopropyl-phenyl)-carbamic acid 1-thieno[3,2-d]pyrimidin-4-yl-piperidin-4-yl ester], the values for the IC50 in the test with MV4-11 cells and on FLT3 571-993 were 4.3 µM and 140 nM, respectively.

Regarding `CC(C)Oc1ccc(NC(=O)OC2CCN(c3ncnc4ccsc34)CC2)cc1` [Compound 8, (4-Isopropoxy-phenyl)-carbamic acid 1-thieno[3,2-d]pyrimidin-4-yl-piperidin-4-yl ester], the half-maximal inhibitory concentration (IC50) in the test with MV4-11 cells stood at 3.6 µM; against FLT3 571-993, 3030 nM.

`CC(C)Oc1ccc(NC(=O)NC2CCN(c3ncnc4sccc34)C2)cc1` (stereo not drawn) [Compound 10, 1-(4-Isopropoxy-phenyl)-3-(1-thieno[2,3-d]pyrimidin-4-yl-pyrrolidin-3-yl)-urea]: the results for the IC50 in the test with MV4-11 cells and on FLT3 571-993 were 3.6 µM and 365 nM, respectively.

With `CC(C)Oc1ccc(NC(=O)NC2CCN(c3ncnc4ccsc34)C2)cc1` (stereo not drawn) [Compound 12, 1-(4-Isopropoxy-phenyl)-3-(1-thieno[3,2-d]pyrimidin-4-yl-pyrrolidin-3-yl)-urea], the IC50 turned out to be 2.5 µM in the test on MV4-11 cells and 296 nM at FLT3 571-993.

With `O=C(Nc1ccc(N2CCOCC2)cc1)NC1CCN(c2ncnc3ccsc23)C1` (stereo not drawn) [Compound 14, 1-(4-Morpholin-4-yl-phenyl)-3-(1-thieno [3,2-d]pyrimidin-4-yl-pyrrolidin-3-yl)-urea], the IC50 with MV4-11 cells was > 5 µM.

In the case of `O=C(Nc1ccc(C2CCCCC2)cc1)NC1CCN(c2ncnc3ccsc23)C1` (stereo not drawn) [Compound 16, 1-(4-Cyclohexyl-phenyl)-3-(1-thieno [3,2-d]pyrimidin-4-yl-pyrrolidin-3-yl)-urea], half-maximal inhibition with MV4-11 cells (IC50) was put at 5.2 µM.

`O=C(Nc1ccc(Br)cc1)NC1CCN(c2ncnc3ccsc23)C1` (stereo not drawn) [Compound 17, 1-(4-Bromo-phenyl)-3-(1-thieno [3,2-d]pyrimidin-4-yl-pyrrolidin-3-yl)-urea]: in the test on MV4-11 cells, the 50% inhibitory concentration (IC50) stood at 1.9 µM.

In the test with MV4-11 cells, `O=C(Nc1ccc(OC2CCC2)nc1)NC1CCN(c2ncnc3ccsc23)CC1` [Compound 20, 1-(6-Cyclobutoxy-pyridin-3-yl)-3-(1-thieno [3,2-d]pyrimidin-4-yl-piperidin-4-yl)-urea] showed an IC50 of 1.5 µM.

Turning to `O=C(Nc1ccc(C2CCCCC2)cc1)NC1CCN(c2ncnc3ccsc23)CC1` [Compound 21, 1-(4-Cyclohexyl-phenyl)-3-(1-thieno [3,2-d]pyrimidin-4-yl-piperidin-4-yl)-urea], the IC50 in the test on MV4-11 cells was determined as 1.4 µM.

In turn, `O=C(Nc1ccc(Oc2ccccc2)cc1)NC1CCN(c2ncnc3ccsc23)CC1` [Compound 22, 1-(4-Phenoxy-phenyl)-3-(1-thieno [3,2-d]pyrimidin-4-yl-piperidin-4-yl)-urea] returned an IC50 in the test on MV4-11 cells of 3.8 µM.

Turning to `O=C(Nc1ccc(N2CCCC2)cc1)NC1CCN(c2ncnc3ccsc23)CC1` [Compound 23, 1-(4-Pyrrolidin-1-yl-phenyl)-3-(1-thieno [3,2-d]pyrimidin-4-yl-piperidin-4-yl)-urea], the IC50 in the test with MV4-11 cells was determined as 3.9 µM.

In the case of `O=C(Nc1ccc(N2CCOCC2)cc1)NC1CCN(c2ncnc3ccsc23)CC1` [Compound 24, 1-(4-Morpholin-4-yl-phenyl)-3-(1-thieno[3,2-d]pyrimidin-4-yl-piperidin-4-yl)-urea], the IC50 in the test with MV4-11 cells was > 5 µM.

Compound `O=C(Nc1ccc(N2CCOCC2)cc1)OC1CCN(c2ncnc3ccsc23)C1` (stereo not drawn) [Compound 28, (4-Morpholin-4-yl-phenyl)-carbamic acid 1-thieno[3,2-d]pyrimidin-4-yl-pyrrolidin-3-yl ester] displayed an IC50 with MV4-11 cells of 2.1 µM.

The values above are taken from patent US20060281768A1, “THIENOPYRIMIDINE AND THIENOPYRIDINE KINASE MODULATORS” (priority 2005, published 2006).
